Measurements taken from ChEMBL document CHEMBL4715750, “Synthesis and in vitro, ex-vivo and in vivo activity of hybrid compounds linking a potent ROS and RNS scavenger activity with diverse substrates addressed to pass across the blood-brain barrier” (Eur J Med Chem, 2016).
Activity calls are given as the source filed them. No cut-off for these calls is given here.

Legend:
[1] = Cytotoxicity against human SH-SY5Y cells assessed as cell viability at 50 uM measured after 24 hrs by MTT assay relative to control; assay type: cell-based; details: read-out: Activity
[2] = Cytotoxicity against human SH-SY5Y cells assessed as cell viability at 3.1 uM measured after 24 hrs by MTT assay relative to control; assay type: cell-based; details: read-out: Activity
[3] = Cytotoxicity against human SH-SY5Y cells assessed as cell viability at 0.8 uM measured after 2 hrs by MTT assay relative to control; assay type: cell-based; details: read-out: Activity
[4] = Cytotoxicity against human SH-SY5Y cells assessed as cell viability at 12.5 uM measured after 24 hrs by MTT assay relative to control; assay type: cell-based; details: read-out: Activity
[5] = Cytotoxicity against human SH-SY5Y cells assessed as cell viability at 6.3 uM measured after 24 hrs by MTT assay relative to control; assay type: cell-based; details: read-out: Activity
[6] = Cytotoxicity against human SH-SY5Y cells assessed as cell viability at 3.1 uM measured after 2 hrs by MTT assay relative to control; assay type: cell-based; details: read-out: Activity
[7] = Cytotoxicity against human SH-SY5Y cells assessed as cell viability at 1.6 uM measured after 24 hrs by MTT assay relative to control; assay type: cell-based; details: read-out: Activity
[8] = Cytotoxicity against human SH-SY5Y cells assessed as cell viability at 25 uM measured after 24 hrs by MTT assay relative to control; assay type: cell-based; details: read-out: Activity
[9] = Cytotoxicity against human SH-SY5Y cells assessed as cell viability at 100 uM measured after 2 hrs by MTT assay relative to control; assay type: cell-based; details: read-out: Activity
[10] = Cytotoxicity against human SH-SY5Y cells assessed as cell viability at 0.8 uM measured after 24 hrs by MTT assay relative to control; assay type: cell-based; details: read-out: Activity
[11] = Antioxidant activity assessed as DPPH radical scavenging activity incubated for 60 mins in absence of light; assay type: functional
[12] = Cytotoxicity against human SH-SY5Y cells assessed as cell viability at 25 uM measured after 2 hrs by MTT assay relative to control; assay type: cell-based; details: read-out: Activity
[13] = Cytotoxicity against human SH-SY5Y cells assessed as cell viability at 50 uM measured after 2 hrs by MTT assay relative to control; assay type: cell-based; details: read-out: Activity
[14] = Cytotoxicity against human SH-SY5Y cells assessed as cell viability at 12.5 uM measured after 2 hrs by MTT assay relative to control; assay type: cell-based; details: read-out: Activity
[15] = Cytotoxicity against human SH-SY5Y cells assessed as cell viability at 6.3 uM measured after 2 hrs by MTT assay relative to control; assay type: cell-based; details: read-out: Activity
[16] = Cytotoxicity against human SH-SY5Y cells assessed as cell viability at 1.6 uM measured after 2 hrs by MTT assay relative to control; assay type: cell-based; details: read-out: Activity
[17] = Cytotoxicity against human SH-SY5Y cells assessed as cell viability at 100 uM measured after 24 hrs by MTT assay relative to control; assay type: cell-based; details: read-out: Activity
SH-SY5Y [18] = experiment: Antioxidant activity in human SH-SY5Y cells assessed as inhibition of H2O2-induced DCFH oxidation measured after 1 hr by DCFH-DA dye based fluorescence assay; assay type: functional, cell-based
SH-SY5Y [19] = experiment: Cytoprotective activity against DMSO-induced toxicity in human SH-SY5Y cells; assay type: functional, cell-based
[20] = Permeability of the compound at pH 7.4 by PAMPA-BBB assay; assay type: ADME; details: read-out: permeability
[21] = Drug concentration in Sprague-Dawley rat plasma at 0.2 mmol/Kg, ip measured after 1 hr by HPLC based fluorimetric analysis; assay type: ADME, organism-based

Row | Structure (SMILES) | IC50 [11] | IC50 (SH-SY5Y [18]) | Papp [20] | viability at 24 h, 50 µM [1] | viability at 24 h, 3.1 µM [2] | viability at 2 h, 0.8 µM [3] | viability at 24 h, 12.5 µM [4] | viability at 24 h, 6.3 µM [5] | viability at 2 h, 3.1 µM [6] | viability at 24 h, 1.6 µM [7] | viability at 24 h, 25 µM [8] | viability at 2 h, 100 µM [9] | viability at 24 h, 0.8 µM [10] | viability at 2 h, 25 µM [12] | viability at 2 h, 50 µM [13] | viability at 2 h, 12.5 µM [14] | viability at 2 h, 6.3 µM [15] | viability at 2 h, 1.6 µM [16] | viability at 24 h, 100 µM [17] | Activity (SH-SY5Y [18]) | also measured
1 | COc1cc2c(cc1O)CCC(C)(CCNC(=O)/C=C(C)/C=C/C=C(C)/C=C/C1=C(C)CCCC1(C)C)O2 (stereo not given) | 16.2 µM | > 300 µM | – | 91.7% | 100% | 87.4% | 100% | 100% | 97.3% | 99.1% | 91.2% | 57.7% | 89.6% | 100% | 97.4% | 100% | 90.5% | 93.6% | 47.9% | Dose-dependent effect | –
2 | COc1cc2c(cc1O)CCC(C)(CC(=O)N[C@@H](Cc1ccc(O)cc1)C(=O)O)O2 (stereo not given in full) | 19.6 µM | 50 µM | – | 78.6% | 89.9% | 92.2% | 81.6% | 83.3% | 100% | 89.5% | 82.7% | 75.8% | 79.7% | 95.5% | 95.7% | 92.5% | 99.7% | 94.5% | 67.5% | Dose-dependent effect | concentration at 1 h [21]: 7 µM
3 | COc1cc2c(cc1O)CCC(C)(CC(=O)N[C@H](C(=O)O)C(C)C)O2 (stereo not given in full) | 17.3 µM | 43.8 µM | 0.03 ×10⁻⁶ cm/s | 79.3% | 79.1% | 93.3% | 82.6% | 82% | 98% | 82.1% | 76.1% | 85.9% | 75.7% | 96.6% | 100% | 96.4% | 99.7% | 92.6% | 61% | Dose-dependent effect | –
4 | COc1cc2c(cc1O)CCC(C)(CC(=O)N[C@@H](Cc1c[nH]c3ccccc13)C(=O)O)O2 (stereo not given in full) | 15.5 µM | > 200 µM | 1.18 ×10⁻⁶ cm/s | 92.8% | 100% | 94.8% | 91.2% | 94.9% | 97.9% | 96% | 90% | 95.4% | 94.6% | 100% | 95.2% | 100% | 100% | 97.2% | 65.9% | Dose-dependent effect | Activity (SH-SY5Y [19]): Active
5 | COc1cc2c(cc1O)CCC(C)(CC(=O)N1CCC[C@H]1C(=O)O)O2 (stereo not given in full) | 19.1 µM | 41.4 µM | 0.04 ×10⁻⁶ cm/s | 100% | 100% | 100% | 100% | 100% | 100% | 93.2% | 95.8% | 78.8% | 92.8% | 100% | 100% | 100% | 98.8% | 99.2% | 79.6% | Dose-dependent effect | –
6 | Cc1c(C)c2c(c(C)c1O)CCC(C)(C(=O)O)O2 (stereo not given) [TROLOX] | 15.7 µM | 82.3 µM | 1.04 ×10⁻⁶ cm/s | 81.9% | 79.6% | 93.2% | 82.8% | 83.7% | 97.6% | 87.6% | 86.4% | 86.5% | 84.6% | 99% | 92.4% | 95% | 97.4% | 88.5% | 68% | Dose-dependent effect | –

Molecules with a lower IC50 [11], results first:

Row | IC50 [11] | IC50 (SH-SY5Y [18]) | Papp [20] | Structure (SMILES) | viability at 24 h, 50 µM [1] | viability at 24 h, 3.1 µM [2] | viability at 2 h, 0.8 µM [3] | viability at 24 h, 12.5 µM [4] | viability at 24 h, 6.3 µM [5] | viability at 2 h, 3.1 µM [6] | viability at 24 h, 1.6 µM [7] | viability at 24 h, 25 µM [8] | viability at 2 h, 100 µM [9] | viability at 24 h, 0.8 µM [10] | viability at 2 h, 25 µM [12] | viability at 2 h, 50 µM [13] | viability at 2 h, 12.5 µM [14] | viability at 2 h, 6.3 µM [15] | viability at 2 h, 1.6 µM [16] | viability at 24 h, 100 µM [17] | Activity (SH-SY5Y [18]) | also measured
7 | 8.4 µM | 32.3 µM | – | COc1cc2c(cc1O)CCC(C)(CC(=O)O)O2 (stereo not given) | 61% | 100% | 100% | 92% | 100% | 100% | 100% | 92.5% | 79.9% | 90.2% | 100% | 100% | 100% | 100% | 100% | 53.1% | Dose-dependent effect | –
8 | 10.5 µM | 71.2 µM | 0.28 ×10⁻⁶ cm/s | COc1cc2c(cc1O)CCC(C)(CC(N)=O)O2 (stereo not given) | 99.2% | 100% | 88.2% | 100% | 100% | 84.8% | 100% | 100% | 54.7% | 96.7% | 83.6% | 74.9% | 85.8% | 80.8% | 96.1% | 51.4% | Dose-dependent effect | Activity (SH-SY5Y [19]): Active
9 | 15 µM | 78 µM | – | COc1cc2c(cc1O)CCC(C)(CC(=O)N[C@@H](CCC(N)=O)C(=O)O)O2 (stereo not given in full) | 83.2% | 100% | 92.8% | 84.8% | 84% | 100% | 89.4% | 91.8% | 86.5% | 92.8% | 100% | 100% | 100% | 100% | 97.1% | 58.2% | Dose-dependent effect | –
10 | 14.7 µM | 92.6 µM | 0.06 ×10⁻⁶ cm/s | COc1cc2c(cc1O)CCC(C)(CC(=O)N[C@@H](C)C(=O)O)O2 (stereo not given in full) | 100% | 100% | 87.6% | 100% | 94.6% | 79.5% | 100% | 100% | 70.1% | 100% | 89.5% | 86.6% | 85% | 86.4% | 86.9% | 68.5% | Dose-dependent effect | Activity (SH-SY5Y [19]): Active
11 | 6.9 µM | 21.6 µM | 0.2 ×10⁻⁶ cm/s | COc1cc2c(cc1O)CCC(C)(CC(=O)NCCc1ccc(O)c(O)c1)O2 (stereo not given) | 77.5% | 94.8% | 100% | 84.2% | 98.4% | 100% | 88.9% | 79.1% | 100% | 100% | 100% | 100% | 100% | 100% | 100% | 58.4% | Dose-dependent effect | –
